The values that follow come from paper PMC10975611, “Heterocycles 52: The Drug-Likeness Analysis of Anti-Inflammatory Thiazolo[3,2-b][1,2,4]triazole and Imidazo[2,1-b][1,3,4]thiadiazole Derivatives” (Pharmaceuticals, 2024).

On the set-up of data set [1]: method as in doi:10.31925/farmacia.2018.5.20, PMID 30248903. Conditions: in vivo; cited from earlier work.
The nature of data set [2]: Lipophilicity by reversed-phase thin-layer chromatography (RP-TLC), isopropanol-water mobile phase. Conditions: for mRM (arithmetic mean of the experimental retention factors RM): RP-18F254s plates, isopropanol 70–90% in water; for RM0 (relative lipophilicity, RM extrapolated to pure water): Soczewinski Wachtmeister equation, isopropanol 70–90%; for PC1(RM): score of first principal component of RM values at isopropanol 70–90%; for b (slope): slope of RM versus isopropanol concentration; for φ0 (chromatographic hydrophobic index): φ0 = RM0/b; for lipophilicity (in words): chromatographic lipophilicity profile / lipophilicity descriptors. The class given is physicochemical. The procedure:
Lipophilicity was assessed by RP-TLC, using RP-[…] standard silica gel plates (20 × 10 cm) as the stationary phase. An isopropanol:water binary mixture was used as the mobile phase, with different isopropanol concentrations 70%, 75%, 80%, 85%, 90% for thiazolo[3,2-b][1,2,4]triazole (1a–16a) and imidazo[2,1-b][1,3,4]thiadiazole (1b–16b) compounds.
The standard solutions (1 mg/mL) used to investigate the lipophilicity of the synthesized compounds were prepared in dichloromethane (1a–16a compounds) and dimethylsulfoxide (1b–16b compounds). From the obtained solutions, 2 µL was applied manually on the chromatographic plates, at 15 mm from the baseline and 5 mm from the edges of the plate at a spot distance of 12 mm. This procedure was repeated three times. The chromatographic plate upward elution was performed in a chromatographic chamber previously saturated for 30 min with mobile phase, at normal atmospheric pressure and room temperature. The migration distance of the eluent was 80 mm. The chromatographic plates were visually inspected under UV light at λ = 254 nm to identify the compounds. In order to minimize possible experimental errors, three measurements were performed for each mobile phase. The retention factors (Rf) were calculated as the average of three determinations in each case.
Based on the Rf values, a variety of parameters can be determined to estimate the lipophilicity of the compounds. The isocratic retention factor (RM) was determined using the Bate–Smith and Westall equation [34]:RM = log(1/Rf − 1) where Rf = x/y and x = the migration distance of the compound, and y = the migration distance of the solvent front.
There is usually a linear correlation between the RM values and the concentration of the organic component in the mobile phase. For a better estimation of lipophilicity, RM0 was determined as the extrapolated retention factor, considering pure water as the mobile phase (Soczewinski Wachtmeister equation):RM = RM0 + bC where b is the slope of the curve, which indicates the rate at which the solubility of the compound increases in the mobile phase, C is the concentration of the isopropanol in the mobile phase, and RM0 is the RM of the compound when the concentration of isopropanol is zero (extrapolated value).
To estimate the lipophilicity of the compounds, φ0, representing the chromatographic hydrophobicity index, was also determined. It corresponds to the percentage (by volume) of the organic component in the mobile phase and can be determined according to the following formula:φ0 = RM0/b
In order to assess the lipophilicity of compounds, other more relevant lipophilicity parameters have been used, such as the arithmetic mean of the experimental retention factors (mRM), and the score associated with the first principal component (PC1(RM)) obtained by applying principal component analysis (PCA) to the retention parameters RM [35, 36]. The determination of these parameters eliminates the errors that appear during the extrapolation procedure (when determining RM0) so that the results are more accurate.

On the set-up of data set [3]: method as in doi:10.31925/farmacia.2018.5.20, PMID 30248903. Conditions: acute inflammation, compared to diclofenac; cited from earlier work.

For the compound `c1ccc(-c2nc3scc(-c4ccccc4)n3n2)cc1` [Compound 1a], the pain threshold result in data set [1] was “increased pain threshold”. For the same compound, in data set [2], the “mRM (arithmetic mean of the experimental retention factors RM)” value (“mRM” below) amounted to 0.056; the “RM0 (relative lipophilicity, RM extrapolated to pure water)” value was 1.810; the “PC1(RM)” value was −0.309; the “b (slope)” value was −0.022. For the same compound, the “φ0 (chromatographic hydrophobic index)” value in data set [2] came to 82.63. The “in vivo anti-inflammatory activity” value in data set [3] was “significantly reduced acute inflammation in vivo”.
With `c1ccc(-c2cn3nc(-c4ccccc4)sc3n2)cc1` [Compound 1b], in data set [1], the pain threshold result is given as “increased pain threshold”. In addition, in data set [2], the “mRM” value is 0.072; the “RM0 (relative lipophilicity, RM extrapolated to pure water)” value is on record as 1.955; the “PC1(RM)” value is recorded as −0.365; the “b (slope)” value is reported as −0.024. In addition, the “φ0 (chromatographic hydrophobic index)” value in data set [2] is recorded as 83.18. Moreover, the “in vivo anti-inflammatory activity” value in data set [3] is “significantly reduced acute inflammation in vivo”.
Turning to `COc1ccc(-c2csc3nc(-c4ccccc4)nn23)cc1` [Compound 4a], the pain threshold result in data set [1] is “increased pain threshold”. Besides, in data set [2], the “mRM” value was found to be 0.031; the “RM0 (relative lipophilicity, RM extrapolated to pure water)” value is on record as 1.612; the “lipophilicity (in words)” value is listed as “low lipophilicity”; the “PC1(RM)” value is reported as −0.216. For the same compound, in data set [2], the “b (slope)” value is recorded as −0.020 and the “φ0 (chromatographic hydrophobic index)” value stood at 81.40. Further, the “in vivo anti-inflammatory activity” value in data set [3] is “significantly reduced acute inflammation in vivo”.
For the compound `COc1ccc(-c2cn3nc(-c4ccccc4)sc3n2)cc1` [Compound 4b], the pain threshold entry in data set [1] is “increased pain threshold”. Moreover, in data set [2], the “mRM” value is given as 0.071; the “RM0 (relative lipophilicity, RM extrapolated to pure water)” value is on record as 1.805; the “lipophilicity (in words)” value is reported as “low lipophilicity”; the “PC1(RM)” value is on record as −0.362. In data set [2], the “b (slope)” value was −0.022 and the “φ0 (chromatographic hydrophobic index)” value is on record as 83.16. The “in vivo anti-inflammatory activity” value in data set [3] is recorded as “significantly reduced acute inflammation in vivo”.
For the compound `Clc1ccc(-c2nn3cc(-c4ccccc4)nc3s2)cc1` [Compound 5b], the pain threshold entry in data set [1] is reported as “increased pain threshold”. Also, in data set [2], the “mRM” value came out at 0.144; the “RM0 (relative lipophilicity, RM extrapolated to pure water)” value is 2.270; the “PC1(RM)” value was −0.624; the “b (slope)” value is reported as −0.027. Further, the “φ0 (chromatographic hydrophobic index)” value in data set [2] came to 85.32. Further, in data set [3], the “in vivo anti-inflammatory activity” value is reported as “significantly reduced acute inflammation in vivo”.
For the compound `COc1ccc(-c2nc3scc(-c4ccccc4)n3n2)cc1` [Compound 9a], the pain threshold entry in data set [1] is “increased pain threshold”. Moreover, in data set [2], the “mRM” value is listed as 0.006; the “RM0 (relative lipophilicity, RM extrapolated to pure water)” value is recorded as 1.705; the “lipophilicity (in words)” value is “low lipophilicity”; the “PC1(RM)” value was −0.127. In data set [2], the “b (slope)” value is listed as −0.021 and the “φ0 (chromatographic hydrophobic index)” value stood at 80.40. The “in vivo anti-inflammatory activity” value in data set [3] is recorded as “significantly reduced acute inflammation in vivo”.
Regarding `COc1ccc(-c2nn3cc(-c4ccccc4)nc3s2)cc1` [Compound 9b], in data set [1], the pain threshold entry is “increased pain threshold”. Also, in data set [2], the “mRM” value was 0.138; the “RM0 (relative lipophilicity, RM extrapolated to pure water)” value is 1.900; the “lipophilicity (in words)” value was “low lipophilicity”; the “PC1(RM)” value was −0.596. In data set [2], the “b (slope)” value is recorded as −0.022 and the “φ0 (chromatographic hydrophobic index)” value amounted to 85.59. For the same compound, the “in vivo anti-inflammatory activity” value in data set [3] is reported as “significantly reduced acute inflammation in vivo”.
In the case of `COc1ccc(-c2nc3scc(-c4ccc(OC)cc4)n3n2)cc1` [Compound 12a], in data set [1], the pain threshold result is “increased pain threshold”. In addition, in data set [2], the “mRM” value is recorded as −0.013; the “RM0 (relative lipophilicity, RM extrapolated to pure water)” value is 1.696; the “lipophilicity (in words)” value was “low lipophilicity”; the “PC1(RM)” value is listed as −0.058. For the same compound, in data set [2], the “b (slope)” value was −0.021 and the “φ0 (chromatographic hydrophobic index)” value was determined as 79.62. The “in vivo anti-inflammatory activity” value in data set [3] is listed as “significantly reduced acute inflammation in vivo”.
With `COc1ccc(-c2cn3nc(-c4ccc(OC)cc4)sc3n2)cc1` [Compound 12b], in data set [1], the pain threshold result is given as “increased pain threshold”. Further, in data set [2], the “mRM” value amounted to 0.097; the “RM0 (relative lipophilicity, RM extrapolated to pure water)” value is reported as 1.460; the “lipophilicity (in words)” value is listed as “low lipophilicity”; the “PC1(RM)” value is reported as −0.450. In data set [2], the “b (slope)” value was −0.017 and the “φ0 (chromatographic hydrophobic index)” value came to 85.89. Also, the “in vivo anti-inflammatory activity” value in data set [3] is on record as “significantly reduced acute inflammation in vivo”.
Turning to `NS(=O)(=O)c1ccc(-c2nc3scc(-c4ccccc4)n3n2)cc1` [Compound 13a], the pain threshold result in data set [1] is recorded as “increased pain threshold”. Besides, in data set [2], the “mRM” value is listed as −0.555; the “RM0 (relative lipophilicity, RM extrapolated to pure water)” value was 1.472; the “lipophilicity (in words)” value was “the least lipophilic compounds”; the “PC1(RM)” value is recorded as 1.875. In addition, in data set [2], the “b (slope)” value is recorded as −0.026 and the “φ0 (chromatographic hydrophobic index)” value is listed as 57.72. Also, the “in vivo anti-inflammatory activity” value in data set [3] is given as “significantly reduced acute inflammation in vivo”.
As to `NS(=O)(=O)c1ccc(-c2nn3cc(-c4ccccc4)nc3s2)cc1` [Compound 13b], the pain threshold entry in data set [1] is “increased pain threshold”. Besides, in data set [2], the “mRM” value is reported as −0.464; the “RM0 (relative lipophilicity, RM extrapolated to pure water)” value is recorded as 0.988; the “lipophilicity (in words)” value was “the least lipophilic compounds”; the “PC1(RM)” value is reported as 1.554. Further, in data set [2], the “b (slope)” value was −0.018 and the “φ0 (chromatographic hydrophobic index)” value was 53.99. In addition, in data set [3], the “in vivo anti-inflammatory activity” value is reported as “significantly reduced acute inflammation in vivo”.
As to `COc1ccc(-c2csc3nc(-c4ccc(S(N)(=O)=O)cc4)nn23)cc1` [Compound 16a], in data set [2], the “mRM” value is given as −0.529; the “RM0 (relative lipophilicity, RM extrapolated to pure water)” value was 0.864; the “PC1(RM)” value is listed as 1.788; the “b (slope)” value is reported as −0.017. Moreover, the “φ0 (chromatographic hydrophobic index)” value in data set [2] is reported as 49.68.
In the case of `COc1ccc(-c2cn3nc(-c4ccc(S(N)(=O)=O)cc4)sc3n2)cc1` [Compound 16b], in data set [2], the “mRM” value is recorded as −0.511; the “RM0 (relative lipophilicity, RM extrapolated to pure water)” value is 0.938; the “PC1(RM)” value worked out at 1.723; the “b (slope)” value was −0.018. The “φ0 (chromatographic hydrophobic index)” value in data set [2] was found to be 52.12.
